pIC50: −log10 of the molar value.
Key:
Trypsin = biological target: T1, Trypsin (Bos taurus, UniProt P00760); experiment: Dose response assay for protease inhibitors: trypsin; format: biochemical; conditions: ratio versus Factor XIa
T1 construct: gene PRSS1
T1 sequence (P00760 24-246): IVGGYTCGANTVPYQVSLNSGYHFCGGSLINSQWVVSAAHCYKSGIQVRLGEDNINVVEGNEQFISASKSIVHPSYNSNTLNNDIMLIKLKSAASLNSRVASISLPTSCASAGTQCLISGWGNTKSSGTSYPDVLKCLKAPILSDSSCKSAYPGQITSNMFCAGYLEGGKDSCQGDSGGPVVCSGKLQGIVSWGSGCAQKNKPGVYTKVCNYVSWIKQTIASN
Method: (§1) • Assay buffer: 20 mM Hepes, pH 7.4; 150 mM NaCl; 0.02% Tween 20 • Compounds: 10 mM stocks in DMSO • Substrate: 20 mM Glp-Pro-Arg-AMC, 25 mg/2.3 mL H2O (store at +4° C.) [Factor XIa, thrombin, and trypsin] • 20 mM Pro-Phe-Arg-AMC (Bachem I-1295), 25 mg/2.2 mL H2O or Boc-Leu-Gly-Arg-AMC (Bachem I-1105), 25 mg/2.07 mL H2O (store at +4° C.) [Factor Xa] • Enzyme: Factor XIa; 0.25 M in 50% glycerol (20 μg/mL) • Trypsin; 0.2 μM in 50% glycerol (4.8 μg/mL) • Thrombin; 0.2 μM in 50% glycerol (7.34 μg/mL) • Factor Xa; 0.2 μM in 50% glycerol (9.2 μg/mL)
(§2) • 1. Dilute the substrate to 100 μM in assay buffer (30 μL/6 mL). The enzyme is diluted to 0.5 nM just prior to use (12 L/6 mL for Factor XIa; 15 μL/6 mL for all of the rest.) • 2. Pipette 50 μL of substrate into each well of the 96 well (12×8) microtiter plate. (Column 1 is used as the 100% activity control and receives no compound, and Column 12 is the blank and receives no enzyme.) Add an additional 46 μL to column 2. • 3. Pipette 4 μL of each compound into the appropriate well in column 2 of the plate (unknowns assayed in triplicate, standard assayed in duplicate). The final compound concentration will be 1/50th of the stock. • 4. Serially two-fold dilute the compound by mixing the sample in column 2, removing 50 μL to the next well (column 3), mix and remove to column 4, etc. until column 11. After mixing column 11, remove 50 μL and discard. • 5. Pipette 50 μL of buffer into column 12. Initiate the reaction by adding 50 μL of enzyme solution to each well of columns 1-11 as rapidly as possible. • 6. Read the plate in a spectrophotometer (SpectraMax) at 30° C., wherein each well is measured every 60 s for 30 min. For Factor Xa assays, each well is measured every 1 min for a total of 60 min. • 7. For Factor XIa assays, the compounds are assayed, in duplicate, at 3 different starting concentrations, 20, 2, and 0.2 μM; 1:10, 1:100, and 1:1000 dilution of 10 mM stock or at 2, 0.2, and 0.02 μM; 1:100, 1:1000, and 1:10,000 dilution of 10 mM stock. Data for each concentration are combined for graphing and data fitting. • 8. Data can be used both for estimation of IC50 and for estimation of Kon.

Factor Xa = biological target: T2, Factor Xa (Homo sapiens, UniProt P00742); experiment: Dose response assay for protease inhibitors: Factor Xa; format: biochemical; conditions: ratio versus Factor XIa
T2 construct: Factor Xa; 0.2 μM in 50% glycerol (9.2 μg/mL)
Method: as §1, §2

human Factor XIa = human Factor XIa (Homo sapiens, UniProt P03951); experiment: Factor XIa enzyme inhibition assay (dose response, fluorogenic AMC substrate); format: biochemical; parameters: Enzyme: Factor XIa; conditions: purified enzyme; substrate 50 μM, enzyme 0.25 nM; read-out: hFXIa IC50
Procedure, shortened: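 Fluorogenic assay in 20 mM Hepes pH 7.4, 150 mM NaCl, 0.02% Tween 20 with 0.25 nM enzyme and 50 μM Glp-Pro-Arg-AMC (final). Fluorescence read every minute for 30 min at 30 °C after serial two-fold compound dilution; IC50 from four-parameter Hill fit of dose-response curves.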

[1] = Caco-2 cell permeability assay (A-B and B-A); format: in vitro ADME; conditions: human; for Papp A→B at 60 min, 10 μM: A-B direction; for Papp B→A at 40 min, 10 μM: B-A direction
Method: The following procedure was used to determine the ability of a test compound to cross Caco-2 cells (human intestinal epithelial cells derived from a colorectal adenocarcinoma). The cells were seeded at 1×10^5 cells/cm^2 in 96-well Multiscreen™ plates (Millipore). Permeability assays were performed with the cells at days 21-25 post-seeding. Cells are typically used for 15 consecutive passages in culture.
This assay can be performed in either the apical to basolateral (A−B) or basolateral to apical (B−A) direction. The test compound was prepared at 10 μM in HBSS-MES (pH 6.5) or HBSS-HEPES (pH 7.4) with a final DMSO concentration of 1%. The working solution was then centrifuged and the supernatant added to the donor side. The assay plate was incubated at 37° C. with gentle shaking for 60 min or 40 min for the A−B or B−A assay, respectively. Samples were aliquoted from the donor side at time zero and the end point, and from the receiver side at the end point.
Reference compounds, propranolol (highly permeable), labetalol (moderately permeable), ranitidine (poorly permeable), and colchicine (P-glycoprotein substrate) were included in each assay.
Samples are analyzed by HPLC-MS/MS using selected reaction monitoring. The HPLC system consists of a binary LC pump with autosampler, a C-18 column, and a gradient.
The apparent permeability coefficient (Papp) of the test compound (Equation 2) and its recovery (Equation 3) are calculated as follows: […]
wherein A is the surface area of the cell monolayer (0.11 cm^2), C is concentration of the test compound expressed as peak area, D denotes donor, and R is receiver. “0”, “mid,” and “end” denote time at zero, mid-point, and end of the incubation, respectively. At is the incubation time. V is the volume of the donor or receiver.
This is most likely due to non-specific binding or degradation.

Chain of human Factor XIa (P03951 388-625 limits assumed): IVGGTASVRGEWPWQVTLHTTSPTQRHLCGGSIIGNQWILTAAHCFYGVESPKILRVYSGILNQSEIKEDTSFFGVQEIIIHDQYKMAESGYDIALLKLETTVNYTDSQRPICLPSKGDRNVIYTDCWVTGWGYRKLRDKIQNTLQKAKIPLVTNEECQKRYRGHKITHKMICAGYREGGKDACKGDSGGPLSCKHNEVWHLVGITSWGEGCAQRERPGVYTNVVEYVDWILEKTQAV
Chain of human Factor XIa (P03951 19-387 partner limits assumed): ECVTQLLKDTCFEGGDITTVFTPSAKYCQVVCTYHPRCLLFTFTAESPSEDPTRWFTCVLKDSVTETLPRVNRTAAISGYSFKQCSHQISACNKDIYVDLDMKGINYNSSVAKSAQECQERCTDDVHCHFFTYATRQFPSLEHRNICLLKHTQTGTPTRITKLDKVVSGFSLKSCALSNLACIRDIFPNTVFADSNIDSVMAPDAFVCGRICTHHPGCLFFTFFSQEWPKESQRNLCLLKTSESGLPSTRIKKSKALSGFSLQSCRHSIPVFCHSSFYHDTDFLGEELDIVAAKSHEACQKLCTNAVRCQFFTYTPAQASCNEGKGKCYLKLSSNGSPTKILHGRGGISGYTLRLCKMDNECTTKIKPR
T2 sequence (P00742 235-488 limits assumed): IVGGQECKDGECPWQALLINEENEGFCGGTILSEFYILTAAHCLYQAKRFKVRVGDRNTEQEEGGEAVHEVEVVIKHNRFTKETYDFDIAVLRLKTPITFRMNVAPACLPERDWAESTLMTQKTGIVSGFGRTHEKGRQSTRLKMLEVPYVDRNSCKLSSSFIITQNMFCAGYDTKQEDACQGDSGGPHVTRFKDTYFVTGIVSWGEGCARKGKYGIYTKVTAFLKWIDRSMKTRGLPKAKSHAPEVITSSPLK
T2 sequence (P00742 41-179 partner limits assumed): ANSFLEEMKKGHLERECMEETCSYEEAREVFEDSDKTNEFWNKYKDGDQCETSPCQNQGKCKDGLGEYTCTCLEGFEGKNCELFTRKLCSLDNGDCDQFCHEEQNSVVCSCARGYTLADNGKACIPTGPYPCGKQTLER

| Compound | Ratio: Trypsin/FXIa (Trypsin) | FXa/FXIa (selectivity ratio) (Factor Xa) | pIC50 (human Factor XIa) | Papp A→B at 60 min, 10 μM [1] [×10⁻⁶ cm/s] | Papp B→A at 40 min, 10 μM [1] [×10⁻⁶ cm/s] |
| --- | --- | --- | --- | --- | --- |
| Cc1ccccc1N(C)C(=O)[C@@H]1[C@@H](Cc2ccnc(N)c2)C(=O)N1C(=O)N[C@@H](C1CCCCC1)C(F)(F)F [Compound 15] | G (“G” indicates 1-100) | H (“H” indicates 101-1000) | 7.00 to 8.00 | 11 to 30 | ≤ 10 |
| CN(C(=O)[C@@H]1[C@@H](Cc2ccnc(N)c2)C(=O)N1C(=O)N[C@@H](C1CCCCC1)C(F)(F)F)c1cccnc1 [Compound 17] | G (“G” indicates 1-100) | H (“H” indicates 101-1000) | 7.00 to 8.00 | 11 to 30 | 11 to 30 |
| CN(C(=O)[C@@H]1[C@@H](Cc2ccnc(N)c2)C(=O)N1C(=O)N[C@@H](C1CCCCC1)C(F)(F)F)c1ccncc1 [Compound 18] | G (“G” indicates 1-100) | I (“I” indicates >500) | > 8.00 | 11 to 30 | 11 to 30 |
| CN(C(=O)[C@@H]1[C@@H](Cc2ccnc(N)c2)C(=O)N1C(=O)N[C@@H](C1CCCCC1)C(F)(F)F)c1cncnc1 [Compound 19] | G (“G” indicates 1-100) | H (“H” indicates 101-1000) | > 8.00 | 11 to 30 | 31 to 50 |
| CN(C(=O)[C@@H]1[C@@H](Cc2ccnc(N)c2)C(=O)N1C(=O)N[C@@H](C1CCCCC1)C(F)(F)F)c1ncccn1 [Compound 21] | G (“G” indicates 1-100) | I (“I” indicates >500) | > 8.00 | 11 to 30 | ≤ 10 |
| CN(C(=O)[C@@H]1[C@@H](Cc2ccnc(N)c2)C(=O)N1C(=O)N[C@@H](C1CCCCC1)C(F)(F)F)c1cccc(F)c1 [Compound 22] | G (“G” indicates 1-100) | H (“H” indicates 101-1000) | > 8.00 | 11 to 30 | ≤ 10 |
| CCN(C(=O)[C@@H]1[C@@H](Cc2ccnc(N)c2)C(=O)N1C(=O)N[C@@H](C1CCCCC1)C(F)(F)F)c1ccccc1 [Compound 24] | G (“G” indicates 1-100) | H (“H” indicates 101-1000) | 7.00 to 8.00 | 11 to 30 | ≤ 10 |
| CC[C@@H](NC(=O)N1C(=O)[C@H](Cc2ccnc(N)c2)[C@H]1C(=O)N(C)c1ccncc1)C1CCCCC1 [Compound 25] | G (“G” indicates 1-100) | I (“I” indicates >500) | > 8.00 | ≤ 10 | 31 to 50 |
| CC[C@@H](NC(=O)N1C(=O)[C@H](Cc2ccnc(N)c2)[C@H]1C(=O)N(C)c1ccccc1)C1CCCCC1 [Compound 27] | G (“G” indicates 1-100) | I (“I” indicates >500) | > 8.00 | 11 to 30 | 11 to 30 |
| CN(C(=O)[C@@H]1[C@@H](Cc2ccnc(N)c2)C(=O)N1C(=O)N[C@@H](C1CCCCC1)C1CC1)c1ccccc1 [Compound 36] | G (“G” indicates 1-100) | I (“I” indicates >500) | > 8.00 | 31 to 50 | 11 to 30 |
| CC[C@@H](NC(=O)N1C(=O)[C@H](Cc2ccnc(N)c2)[C@H]1C(=O)N(CC)c1ncccn1)C1CCCCC1 [Compound 39] | G (“G” indicates 1-100) | I (“I” indicates >500) | > 8.00 | 11 to 30 | 11 to 30 |
| CC[C@@H](NC(=O)N1C(=O)[C@H](Cc2ccnc(N)c2)[C@H]1C(=O)N(C)c1ccncc1)c1ccccc1 [Compound 42] | G (“G” indicates 1-100) | I (“I” indicates >500) | > 8.00 | ≤ 10 | 31 to 50 |

Further lines, results first:

| Ratio: Trypsin/FXIa (Trypsin) | FXa/FXIa (selectivity ratio) (Factor Xa) | pIC50 (human Factor XIa) | Papp A→B at 60 min, 10 μM [1] [×10⁻⁶ cm/s] | Papp B→A at 40 min, 10 μM [1] [×10⁻⁶ cm/s] | Compound |
| --- | --- | --- | --- | --- | --- |
| G (“G” indicates 1-100) | I (“I” indicates >500) | > 8.00 | ≤ 10 | 31 to 50 | CC[C@@H](NC(=O)N1C(=O)[C@H](Cc2ccnc(N)c2)[C@H]1C(=O)N(C)c1ccccc1)c1cccnc1 [Compound 44] |
| G (“G” indicates 1-100) | H (“H” indicates 101-1000) | 7.00 to 8.00 | 11 to 30 | > 50 | CC[C@@H](NC(=O)N1C(=O)[C@H](Cc2ccnc(N)c2)[C@H]1C(=O)N(C)c1ccccc1)C1CC1 [Compound 46] |
| G (“G” indicates 1-100) | I (“I” indicates >500) | > 8.00 | > 50 | 11 to 30 | C[C@@H](NC(=O)N1C(=O)[C@H](Cc2ccnc(N)c2)[C@H]1C(=O)N(C)c1ccccc1)C1CCCCC1 [Compound 49] |
| G (“G” indicates 1-100) | I (“I” indicates >500) | > 8.00 | 31 to 50 | ≤ 10 | CCC[C@@H](NC(=O)N1C(=O)[C@H](Cc2ccnc(N)c2)[C@H]1C(=O)N(C)c1ccccc1)C1CCCCC1 [Compound 50] |
| G (“G” indicates 1-100) | I (“I” indicates >500) | > 8.00 | 11 to 30 | 31 to 50 | CN(C(=O)[C@@H]1[C@@H](Cc2ccnc(N)c2)C(=O)N1C(=O)N[C@@H](C1CCCCC1)C1CC1)c1ccncc1 [Compound 52] |
|  | H (“H” indicates 101-1000) | 7.00 to 8.00 | ≤ 10 | 31 to 50 | CN(C(=O)[C@@H]1[C@@H](Cc2ccnc(N)c2)C(=O)N1C(=O)N[C@@H](C1CC1)C(F)(F)F)c1ccncc1 [Compound 77] |
|  | I (“I” indicates >500) | 7.00 to 8.00 | 11 to 30 | > 50 | CN(C(=O)[C@@H]1[C@@H](Cc2ccnc(N)c2)C(=O)N1C(=O)N[C@@H](C1CC1)C(F)(F)F)c1ncccn1 [Compound 78] |

Source: US20190315711A1 (eXIthera Pharmaceuticals, Inc., priority 2016, published 2019)
